Measurements published in the NIST ThermoML archive (doi:10.1016/j.jct.2013.04.021).
Numbers after ± are expanded uncertainties.

Assay: xn = mol fraction of the nth substance listed
Conditions: 101 kPa, Liquid; for mass density: Vibrating tube method; for speed of sound: fixed-path interferometer; for viscosity: Capillary tube (Ostwald / Ubbelohde) method

CCCCOCCO [2-butoxyethan-1-ol] + CCCCCCCCCCO
Conditions	mass density [kg/m3]	speed of sound [m/s]	viscosity [mPa·s]
293.15 K, x1 = 0.0563	832.457 ± 0.24	1392 ± 1.6	–
293.15 K, x1 = 0.1024	834.521 ± 0.24	1388.2 ± 1.6	–
293.15 K, x1 = 0.1544	836.95 ± 0.24	1383.8 ± 1.6	–
293.15 K, x1 = 0.2049	839.424 ± 0.24	1379.5 ± 1.6	–
293.15 K, x1 = 0.2531	841.903 ± 0.24	1374.8 ± 1.6	–
293.15 K, x1 = 0.3066	844.775 ± 0.24	1369.9 ± 1.6	–
293.15 K, x1 = 0.4028	850.363 ± 0.24	1360.7 ± 1.6	–
293.15 K, x1 = 0.5033	856.773 ± 0.24	1351.5 ± 1.6	–
293.15 K, x1 = 0.6031	863.803 ± 0.24	1343.5 ± 1.6	–
293.15 K, x1 = 0.7009	871.448 ± 0.24	1337.1 ± 1.6	–
293.15 K, x1 = 0.8043	880.396 ± 0.24	1331.2 ± 1.6	–
293.15 K, x1 = 0.8532	884.962 ± 0.24	1328.7 ± 1.6	–
293.15 K, x1 = 0.8996	889.528 ± 0.24	1326.3 ± 1.6	–
293.15 K, x1 = 0.9447	894.239 ± 0.24	1324.5 ± 1.6	–
298.15 K, x1 = 0.0563	829 ± 0.24	1374.9 ± 1.6	10.7 ± 0.24
298.15 K, x1 = 0.1024	831.148 ± 0.24	1371.1 ± 1.6	9.884 ± 0.22
298.15 K, x1 = 0.1544	833.643 ± 0.24	1366.8 ± 1.6	9.125 ± 0.2
298.15 K, x1 = 0.2049	836.177 ± 0.24	1362.6 ± 1.6	8.425 ± 0.19
298.15 K, x1 = 0.2531	838.694 ± 0.24	1358.3 ± 1.6	7.84 ± 0.17
298.15 K, x1 = 0.3066	841.628 ± 0.24	1353.7 ± 1.6	7.29 ± 0.16
298.15 K, x1 = 0.4028	847.26 ± 0.24	1344.9 ± 1.6	6.351 ± 0.14
298.15 K, x1 = 0.5033	853.675 ± 0.24	1336.1 ± 1.6	5.491 ± 0.12
298.15 K, x1 = 0.6031	860.637 ± 0.24	1328.2 ± 1.6	4.852 ± 0.11
298.15 K, x1 = 0.7009	868.128 ± 0.24	1321.1 ± 1.5	4.26 ± 0.094
298.15 K, x1 = 0.8043	876.828 ± 0.24	1314.9 ± 1.5	3.68 ± 0.081
298.15 K, x1 = 0.8532	881.288 ± 0.24	1312.6 ± 1.5	3.446 ± 0.076
298.15 K, x1 = 0.8996	885.737 ± 0.24	1310.2 ± 1.5	3.261 ± 0.072
298.15 K, x1 = 0.9447	890.317 ± 0.24	1308.3 ± 1.5	3.107 ± 0.068
303.15 K, x1 = 0.0563	825.535 ± 0.24	1358.1 ± 1.6	8.765 ± 0.2
303.15 K, x1 = 0.1024	827.625 ± 0.24	1354.4 ± 1.6	8.155 ± 0.18
303.15 K, x1 = 0.1544	830.09 ± 0.24	1350.1 ± 1.6	7.554 ± 0.17
303.15 K, x1 = 0.2049	832.6 ± 0.24	1345.9 ± 1.6	7.026 ± 0.16
303.15 K, x1 = 0.2531	835.09 ± 0.24	1341.7 ± 1.6	6.577 ± 0.15
303.15 K, x1 = 0.3066	837.986 ± 0.24	1337.1 ± 1.6	6.114 ± 0.14
303.15 K, x1 = 0.4028	843.566 ± 0.24	1328.9 ± 1.6	5.33 ± 0.12
303.15 K, x1 = 0.5033	849.927 ± 0.24	1320.8 ± 1.5	4.683 ± 0.1
303.15 K, x1 = 0.6031	856.84 ± 0.24	1313.2 ± 1.5	4.089 ± 0.09
303.15 K, x1 = 0.7009	864.279 ± 0.24	1306.3 ± 1.5	3.638 ± 0.08
303.15 K, x1 = 0.8043	872.98 ± 0.24	1299.7 ± 1.5	3.162 ± 0.069
303.15 K, x1 = 0.8532	877.42 ± 0.24	1296.7 ± 1.5	2.979 ± 0.065
303.15 K, x1 = 0.8996	881.86 ± 0.24	1294.2 ± 1.5	2.814 ± 0.062
303.15 K, x1 = 0.9447	886.371 ± 0.24	1291.7 ± 1.5	2.671 ± 0.059
308.15 K, x1 = 0.0563	822.068 ± 0.24	1341.5 ± 1.6	7.476 ± 0.17
308.15 K, x1 = 0.1024	824.141 ± 0.24	1337.8 ± 1.6	6.95 ± 0.15
308.15 K, x1 = 0.1544	826.569 ± 0.24	1333.9 ± 1.6	6.449 ± 0.14
308.15 K, x1 = 0.2049	829.044 ± 0.24	1330 ± 1.6	5.981 ± 0.13
308.15 K, x1 = 0.2531	831.491 ± 0.24	1326.1 ± 1.6	5.619 ± 0.12
308.15 K, x1 = 0.3066	834.361 ± 0.24	1321.8 ± 1.5	5.215 ± 0.12
308.15 K, x1 = 0.4028	839.86 ± 0.24	1314.1 ± 1.5	4.618 ± 0.1
308.15 K, x1 = 0.5033	846.141 ± 0.24	1306 ± 1.5	4.088 ± 0.09
308.15 K, x1 = 0.6031	852.988 ± 0.24	1298.2 ± 1.5	3.601 ± 0.079
308.15 K, x1 = 0.7009	860.384 ± 0.24	1290.9 ± 1.5	3.195 ± 0.07
308.15 K, x1 = 0.8043	869.011 ± 0.24	1283.7 ± 1.5	2.808 ± 0.061
308.15 K, x1 = 0.8532	873.415 ± 0.24	1280.6 ± 1.5	2.609 ± 0.057
308.15 K, x1 = 0.8996	877.785 ± 0.24	1277.7 ± 1.5	2.453 ± 0.054
308.15 K, x1 = 0.9447	882.225 ± 0.24	1275.3 ± 1.5	2.295 ± 0.051
313.15 K, x1 = 0.0563	818.532 ± 0.24	1324.8 ± 1.6	–
313.15 K, x1 = 0.1024	820.551 ± 0.24	1321.5 ± 1.6	–
313.15 K, x1 = 0.1544	822.945 ± 0.24	1317.8 ± 1.5	–
313.15 K, x1 = 0.2049	825.399 ± 0.24	1314.2 ± 1.5	–
313.15 K, x1 = 0.2531	827.825 ± 0.24	1310.6 ± 1.5	–
313.15 K, x1 = 0.3066	830.657 ± 0.24	1306.6 ± 1.5	–
313.15 K, x1 = 0.4028	836.098 ± 0.24	1299.4 ± 1.5	–
313.15 K, x1 = 0.5033	842.307 ± 0.24	1292 ± 1.5	–
313.15 K, x1 = 0.6031	849.078 ± 0.24	1284.5 ± 1.5	–
313.15 K, x1 = 0.7009	856.416 ± 0.24	1277 ± 1.5	–
313.15 K, x1 = 0.8043	864.959 ± 0.24	1269.4 ± 1.5	–
313.15 K, x1 = 0.8532	869.328 ± 0.24	1266.2 ± 1.5	–
313.15 K, x1 = 0.8996	873.661 ± 0.24	1262.7 ± 1.5	–
313.15 K, x1 = 0.9447	878.012 ± 0.24	1259.7 ± 1.5	–
